Eleven compounds from publication PMC6399351, “Cationic Intrinsically Disordered Antimicrobial Peptides (CIDAMPs) Represent a New Paradigm of Innate Defense with a Potential for Novel Anti-Infectives” (Scientific Reports, 2019) can be followed below.

Converted amounts (≈) assume the structure as drawn. Read-outs that look alike come from different tables or passages of the source. Square brackets hold non-standard residues; d marks the D form. Ends that are not written are not given here. Peptide text beside a SMILES is read from it. * marks the point of attachment. Palmitoyl = CCCCCCCCCCCCCCCC(=O)*; Dab = NCC[C@H](N)C(=O)O; Dap = NC[C@H](N)C(=O)O

In one assay the test system is S. aureus ATCC 6538. Conditions: CFU assay.
In assay [1] the test system is Cryptococcus neoformans ATCC 208821. The assay is described as follows: CO-ADD MIC, antifungal assay (CLSI). The format is cell-based. Conditions: Yeast Nitrogen Base broth, 24 h 35 °C, by CO-ADD. The procedure: (§1) Fungi strains were cultured for 3 days on Yeast Extract-Peptone Dextrose (YPD) agar at 30 °C. A yeast suspension of 1 × 10^6 to 5 × 10^6 cells/mL (as determined by OD530) was prepared from five colonies. These stock suspensions were diluted with Yeast Nitrogen Base (YNB) broth to a final concentration of 2.5 × 10^3 CFU/mL. […] Plates were covered and incubated at 35 °C for 24 h without shaking.

The test system of assay [2] is Candida albicans ATCC 90028. Put plainly: CO-ADD MIC, antifungal assay (CLSI). It counts as cell-based. The settings on record: Yeast Nitrogen Base broth, 24 h 35 °C, by CO-ADD. As for the experimental part: as §1
Assay [3] deals with Acinetobacter baumannii ATCC 19606. Put plainly: CO-ADD MIC, broth microdilution (CLSI). It counts as cell-based. Conditions: Mueller–Hinton broth, 5 × 10^5 CFU/mL, 18 h 37 °C, by CO-ADD. An excerpt: (§2) They were defined as the lowest peptide
(§3) Further details of the screening
In general terms: Broth dilution looks for growth in wells or tubes with falling amounts of substance.

The test system of assay [4] is Pseudomonas aeruginosa ATCC 27853. The assay is described as follows: CO-ADD MIC, broth microdilution (CLSI). It counts as cell-based. Conditions: Mueller–Hinton broth, 5 × 10^5 CFU/mL, 18 h 37 °C, by CO-ADD.
Description: as §2, §3

For a further assay, the system named is E. coli ATCC 25922. Put plainly: CO-ADD MIC, broth microdilution (CLSI). The format is cell-based, Escherichia coli. Conditions: Mueller–Hinton broth, 5 × 10^5 CFU/mL, 18 h 37 °C, by CO-ADD.
Description: as §2, §3

For assay [5], the system named is Staphylococcus aureus ATCC 43300. The settings on record: MRSA; CLSI, Mueller–Hinton broth, 5 × 10^5 CFU/mL, 18 h 37 °C, by CO-ADD.
In assay [6] the test system is Klebsiella pneumonia ATCC 700603. Conditions: MDR strain; CLSI, Mueller–Hinton broth, 5 × 10^5 CFU/mL, 18 h 37 °C, by CO-ADD.
The mark [7] stands for this setting: 10 mM NaP, pH 5.5, 0.25% glucose.

Turning to `CCCCCCCCCCCCCCCC(=O)NCC(=O)N[C@@H](CCN)C(=O)NCC(=O)N[C@@H](CCN)C(=O)O` [Pal-G-Dab4] (Palmitoyl-G[Dab]G[Dab]-OH), in the assay on S. aureus ATCC 6538 (setting [7]), the LD90 stood at 4.7 µg/mL. In addition, the “Minimal inhibitory concentration (MIC)” value in assay [1] was 16 µg/mL (≈ 28 µM); in assay [2] it was over 32 µg/mL; in assay [3] it was 32 µg/mL (≈ 56.1 µM); in assay [4] it was over 32 µg/mL; in the assay on E. coli ATCC 25922, over 32 µg/mL; in assay [5], 32 µg/mL (≈ 56.1 µM). Further, in assay [6], the “Minimal inhibitory concentration (MIC)” value is on record as over 32 µg/mL.
Take `CCCCCCCCCCCCCCCC(=O)NCC(=O)N[C@@H](CN)C(=O)NCC(=O)N[C@@H](CN)C(=O)O` [Pal-G-Dap4] (Palmitoyl-G[Dap]G[Dap]-OH): the LD90 in the assay with S. aureus ATCC 6538 (setting [7]) turned out to be 2.35 µg/mL. Also, the “Minimal inhibitory concentration (MIC)” value in assay [1] is 1 µg/mL (≈ 1.84 µM); in assay [2] it was 8 µg/mL (≈ 14.7 µM); in assay [3] it was over 32 µg/mL; in assay [4] it was over 32 µg/mL; with E. coli ATCC 25922, over 32 µg/mL; in assay [5], 8 µg/mL (≈ 14.7 µM). For the same compound, the “Minimal inhibitory concentration (MIC)” value in assay [6] was over 32 µg/mL.
As for `CCCCCCCCCCCCCCCC(=O)NCC(=O)N[C@@H](CCCNC(=N)N)C(=O)NCC(=O)N[C@@H](CCCNC(=N)N)C(=O)O` [Pal-GR4] (Palmitoyl-GRGR-OH), the results for the LD90 in the assay with S. aureus ATCC 6538 (setting [7]) and in the assay on S. aureus ATCC 6538 (value in molar units) were 2.35 µg/mL and 3.4 µM, respectively. For the same compound, the “LD99 (concentration of peptide which kills 99.0% of inoculum)” value with S. aureus ATCC 6538 (setting [7]) is on record as 4.7 µg/mL. Besides, the “Minimal inhibitory concentration (MIC)” value is listed as 8 µg/mL (≈ 11.7 µM) in assay [1]; 8 µg/mL (≈ 11.7 µM) in assay [2]; over 32 µg/mL in assay [3]; over 32 µg/mL in assay [4]; over 32 µg/mL in the assay with E. coli ATCC 25922; 8 µg/mL (≈ 11.7 µM) in assay [5]. For the same compound, in assay [6], the “Minimal inhibitory concentration (MIC)” value is over 32 µg/mL.
Compound `CCCCCCCCCCCCCCCC(=O)NCC(=O)N[C@@H](CCCNC(=N)N)C(=O)N[C@@H](CCCNC(=N)N)C(=O)NCC(=O)NCC(=O)N[C@@H](CCCNC(=N)N)C(=O)O` [Pal-GR6] (Palmitoyl-GRRGGR-OH) had an LD90 in the assay on S. aureus ATCC 6538 (setting [7]) of 2.35 µg/mL. Moreover, the “LD99 (concentration of peptide which kills 99.0% of inoculum)” value in the assay on S. aureus ATCC 6538 (setting [7]) was 4.7 µg/mL. The “Minimal inhibitory concentration (MIC)” value is recorded as 16 µg/mL (≈ 17.9 µM) in assay [1]; over 32 µg/mL in assay [2]; over 32 µg/mL in assay [3]; over 32 µg/mL in assay [4]; over 32 µg/mL in the assay on E. coli ATCC 25922; 16 µg/mL (≈ 17.9 µM) in assay [5]. Also, in assay [6], the “Minimal inhibitory concentration (MIC)” value is on record as over 32 µg/mL.
`CCCCCCCCCCCCCCCC(=O)NCC(=O)N[C@@H](CCCNC(=N)N)C(=O)N[C@@H](CCCNC(=N)N)C(=O)NCC(=O)NCC(=O)N[C@@H](CCCNC(=N)N)C(=O)NCC(=O)NCC(=O)N[C@@H](CCCNC(=N)N)C(=O)O` [Pal-GR9] (Palmitoyl-GRRGGRGGR-OH): the LD90 with S. aureus ATCC 6538 (setting [7]) came to 1.18 µg/mL. For the same compound, the “LD99 (concentration of peptide which kills 99.0% of inoculum)” value in the assay with S. aureus ATCC 6538 (setting [7]) is given as 4.7 µg/mL. Besides, the “Minimal inhibitory concentration (MIC)” value in assay [1] is over 32 µg/mL; in assay [2] it was over 32 µg/mL; in assay [3], over 32 µg/mL; in assay [4], over 32 µg/mL; with E. coli ATCC 25922 it was over 32 µg/mL; in assay [5], 8 µg/mL (≈ 6.86 µM). Further, the “Minimal inhibitory concentration (MIC)” value in assay [6] is reported as over 32 µg/mL.
For the compound `CCCCCCCCCCCCCCCC(=O)NCC(=O)N[C@@H](CCCNC(=N)N)C(=O)N[C@@H](CCCNC(=N)N)C(=O)NCC(=O)NCC(=O)N[C@@H](CCCNC(=N)N)C(=O)NCC(=O)NCC(=O)N[C@@H](CCCNC(=N)N)C(=O)NCC(=O)N[C@@H](CCCNC(=N)N)C(=O)O` [Pal-GR11] (Palmitoyl-GRRGGRGGRGR-OH), the LD90 with S. aureus ATCC 6538 (10 mM NaP, pH 7.3, 1% TSB) is recorded as 0.3 µg/mL. For the same compound, in the assay with S. aureus ATCC 6538 (10 mM NaP, pH 7.3, 1% TSB), the “LD99 (concentration of peptide which kills 99.0% of inoculum)” value amounted to 1.18 µg/mL. Also, the “Minimal inhibitory concentration (MIC)” value came out at 4 µg/mL (≈ 2.9 µM) in assay [1]; 4 µg/mL (≈ 2.9 µM) in assay [2]; 8 µg/mL (≈ 5.8 µM) in assay [3]; 16 µg/mL (≈ 11.6 µM) in assay [4]; 8 µg/mL (≈ 5.8 µM) in the assay on E. coli ATCC 25922; 4 µg/mL (≈ 2.9 µM) in assay [5]. Moreover, the “Minimal inhibitory concentration (MIC)” value in assay [6] is recorded as over 32 µg/mL.
As for `CCCCCCCCCCCCCCCC(=O)N[C@@H](Cc1c[nH]cn1)C(=O)NCC(=O)N[C@@H](CO)C(=O)N[C@@H](CCCNC(=N)N)C(=O)N[C@@H](CO)C(=O)NCC(=O)N[C@@H](CCC(N)=O)C(=O)N[C@@H](CO)C(=O)N[C@@H](CO)C(=O)N[C@@H](CCCNC(=N)N)C(=O)NCC(=O)N[C@@H](CCC(=O)O)C(=O)N[C@@H](CCCNC(=N)N)C(=O)N[C@@H](Cc1c[nH]cn1)C(=O)NCC(=O)N[C@@H](CO)C(=O)N[C@@H](CO)C(=O)N[C@@H](CO)C(=O)NCC(=O)N[C@@H](CO)C(=O)N[C@@H](CO)C(=O)N[C@@H](CO)C(=O)N[C@@H](Cc1c[nH]cn1)C(=O)O` [Pal-HR 1-11] (Palmitoyl-HGSRSGQSSRGERHGSSSGSSSH-OH), in the assay on S. aureus ATCC 6538 (setting [7]), the LD90 came to 2.35 µg/mL. Also, the “Minimal inhibitory concentration (MIC)” value in assay [1] is recorded as over 32 µg/mL; in assay [2], over 32 µg/mL; in assay [3], over 32 µg/mL; in assay [4] it was over 32 µg/mL; in the assay with E. coli ATCC 25922 it was over 32 µg/mL; in assay [5] it was 32 µg/mL (≈ 12.6 µM). Moreover, the “Minimal inhibitory concentration (MIC)” value in assay [6] is over 32 µg/mL.
`CCCCCCCCCCCCCCCC(=O)NCC(=O)N[C@@H](CCCNC(=N)N)C(=O)N[C@@H](CCCNC(=N)N)C(=O)NCC(=O)N[C@@H](CO)C(=O)NCC(=O)N[C@@H](CC(C)C)C(=O)NCC(=O)N[C@@H](CCCNC(=N)N)C(=O)N[C@@H](CO)C(=O)N[C@@H](CO)C(=O)N[C@@H](CO)C(=O)N[C@@H](CCCNC(=N)N)C(=O)O` [Pal-HR 1-18-3H3R-GR13] (Palmitoyl-GRRGSGLGRSSSR-OH) registered an LD90 in the assay on S. aureus ATCC 6538 (setting [7]) of 2.35 µg/mL. In addition, the “Minimal inhibitory concentration (MIC)” value in assay [1] is reported as 16 µg/mL (≈ 10.2 µM); in assay [2] it was over 32 µg/mL; in assay [3] it was 16 µg/mL (≈ 10.2 µM); in assay [4], over 32 µg/mL; in the assay on E. coli ATCC 25922, over 32 µg/mL; in assay [5], 16 µg/mL (≈ 10.2 µM). For the same compound, the “Minimal inhibitory concentration (MIC)” value in assay [6] is reported as over 32 µg/mL.
`CCCCCCCCCCCCCCCC(=O)N[C@@H](CCCNC(=N)N)C(=O)NCC(=O)N[C@@H](CO)C(=O)N[C@@H](CCCNC(=N)N)C(=O)N[C@@H](CO)C(=O)NCC(=O)N[C@@H](CCC(N)=O)C(=O)N[C@@H](CO)C(=O)N[C@@H](CO)C(=O)N[C@@H](CCCNC(=N)N)C(=O)NCC(=O)N[C@@H](CCC(=O)O)C(=O)N[C@@H](CCCNC(=N)N)C(=O)N[C@@H](CCCNC(=N)N)C(=O)NCC(=O)N[C@@H](CO)C(=O)N[C@@H](CO)C(=O)N[C@@H](CO)C(=O)NCC(=O)N[C@@H](CO)C(=O)N[C@@H](CO)C(=O)N[C@@H](CO)C(=O)N[C@@H](CCCNC(=N)N)C(=O)O` [Pal-HR-1-11-3H3R] (Palmitoyl-RGSRSGQSSRGERRGSSSGSSSR-OH) had an LD90 in the assay on S. aureus ATCC 6538 (setting [7]) of 0.59 µg/mL. Moreover, the “Minimal inhibitory concentration (MIC)” value is given as 32 µg/mL (≈ 12.3 µM) in assay [1]; 32 µg/mL (≈ 12.3 µM) in assay [2]; 8 µg/mL (≈ 3.07 µM) in assay [3]; over 32 µg/mL in assay [4]; 32 µg/mL (≈ 12.3 µM) in the assay with E. coli ATCC 25922; 32 µg/mL (≈ 12.3 µM) in assay [5]. Further, in assay [6], the “Minimal inhibitory concentration (MIC)” value is over 32 µg/mL.
As for GRRGGRGGRGRGR [GR13], the LD90 with S. aureus ATCC 6538 (setting [7]) came out at 75 µg/mL; in the assay on S. aureus ATCC 6538 (10 mM NaP, pH 7.0, 0.25% glucose), 75 µg/mL. The “Minimal inhibitory concentration (MIC)” value (in assay [1]; in assay [2]; in assay [3]; in assay [4]; in the assay on E. coli ATCC 25922; in assay [5]) was over 32 µg/mL in each case. Also, the “Minimal inhibitory concentration (MIC)” value in assay [6] is over 32 µg/mL.
The compound SHHRHFRSHQCRR [LCE-3C55-67] came in with an LD90 in the assay on S. aureus ATCC 6538 (setting [7]) of 2.35 µg/mL. Besides, the “Minimal inhibitory concentration (MIC)” value in assay [1] is 8 µg/mL; in assay [2] it was over 32 µg/mL; in assay [3], over 32 µg/mL; in assay [4], over 32 µg/mL; in the assay on E. coli ATCC 25922, over 32 µg/mL; in assay [5], 32 µg/mL. Further, the “Minimal inhibitory concentration (MIC)” value in assay [6] is over 32 µg/mL.
